In US9254120B2, “Method for predicting breast cancer patient response to combination therapy” (Biodesix, Inc., priority 2011, dated 2016):
Like-named read-outs stand apart in the source and are kept apart here.

Tests used:
[1] = test system: first line metastatic breast cancer patients
Excerpt: The total number of patients in this trial was 1258, 1164 pretreatment serum samples were available for analysis. We obtained valid VeriStrat test results for 1046 of these patients, of which 961 were classified as VeriStrat Good, 80 were VeriStrat Poor, and 5 were VeriStrat Indeterminate (Undefined) (patients for whom 3 replicate spectra produced discrepant results); 117 samples were not evaluable due to hemolysis and we could not assign a VeriStrat label to one patient due to data inconsistencies between available samples.
The classifier assigned a class label to the samples, either “Good” or “Poor” or in a few instances “undefined.” The class labels were assigned using a K-nearest neighbor (KNN) scoring algorithm based on a comparison of the spectra, after preprocessing and calculation of integrated intensity values at selected features in the spectra, with a training set of class-labeled spectra from other cancer patients.
In our retrospective analysis of the EGF30008 study, we obtained serum samples from the patients participating in the study, subjected them to our VeriStrat test, and the samples were assigned class labels of Good or Poor, depending on the outcome of the KNN algorithm in the classifier.
A Cox Proportional Hazard Model analysis was carried out including VeriStrat classification, treatment arm, and an interaction term between the two.

[2] = test system: advanced breast cancer patients; conditions: letrozole versus anastrozole; cited from earlier work
[3] = test system: early breast cancer patients; conditions: 5 years of treatment, versus tamoxifen, hormone receptor-positive women; cited from earlier work

## N#Cc1ccc(C(c2ccc(C#N)cc2)n2cncn2)cc1 [letrozole]
[1]; HER2+ patients
  HR for PFS, VeriStrat Good vs VeriStrat Poor within the treatment arm (95% CI): 0.29
[1]; HER2+ patients, VeriStrat Good
  Median PFS: 3.0 months
[1]; HER2+ patients, VeriStrat Poor
  Median PFS: 2.3 months
[1]; HER2+ patients, listed as Let only
  HR for PFS, VeriStrat Good vs VeriStrat Poor within the treatment arm (95% CI): 0.29 (0.09-0.98)
[1]; HER2- patients, VeriStrat Good
  Median PFS: 13.6 months
[1]; HER2- patients, VeriStrat Poor
  Median PFS: 3.1 months
[1]; HER2- patients, listed as Let only
  HR for PFS, VeriStrat Good vs VeriStrat Poor within the treatment arm (95% CI): 0.37 (0.21-0.64)
[1]; HER2- patients, listed as letrozole+placebo
  HR for PFS, VeriStrat Good vs VeriStrat Poor within the treatment arm (95% CI): 0.37
[1]; overall population, VeriStrat Good patients
  Median PFS: 10.8 months
[1]; overall population, VeriStrat Poor patients
  Median PFS: 2.8 months
[1]; overall population, listed as Let only
  HR for PFS, VeriStrat Good vs VeriStrat Poor within the treatment arm (95% CI): 0.36 (0.23-0.58)
[1]; overall population, listed as letrozole+placebo
  HR for PFS, VeriStrat Good vs VeriStrat Poor within the treatment arm (95% CI): 0.36
[2]
  Overall response rate (ORR): significantly superior to anastrozole

## CC(C)(C#N)c1cc(Cn2cncn2)cc(C(C)(C)C#N)c1 [anastrozole]
[3]
  Reduction in recurrence rates: 26%

## CS(=O)(=O)CCNCc1ccc(-c2ccc3ncnc(Nc4ccc(OCc5cccc(F)c5)c(Cl)c4)c3c2)o1 [lapatinib]
[1]; VeriStrat Good group
  Patient outcome on addition of lapatinib to letrozole: little or no clinical benefit
[1]; VeriStrat Poor group
  Patient outcome on addition of lapatinib to letrozole: significantly improves patient outcome
